System: Mitochondria-located protein genes
Assay: DNA chip mRNA expression in yeast, mitochondria-located protein genes (Table 2)
Format: cell-based, Saccharomyces cerevisiae S288C
Conditions: cells incubated two hours with the chemical substance
How it was run: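 In this screen, yeast in logarithmic growth are challenged for two hours with a toxic substance at a non-lethal inhibitory concentration. Their mRNA, converted to Cy3- or Cy5-labeled cDNA, hybridizes at 65° C. to a chip spanning every yeast gene, and expression is expressed as a ratio to untreated cells.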

manganese ethylenebis(dithiocarbamate) [(8)]
The level of expressed mRNA in the presence of chemical substance/The level of expressed mRNA in the absence of chemical substance (yeast gene YJR121W): 0.7
The level of expressed mRNA in the presence of chemical substance/The level of expressed mRNA in the absence of chemical substance (yeast gene YKL003C): 1.2
The level of expressed mRNA in the presence of chemical substance/The level of expressed mRNA in the absence of chemical substance (yeast gene YKL016C): 1.6
The level of expressed mRNA in the presence of chemical substance/The level of expressed mRNA in the absence of chemical substance (yeast gene YKL141W): 0.8
The level of expressed mRNA in the presence of chemical substance/The level of expressed mRNA in the absence of chemical substance (yeast gene YKL142W): 2.3
The level of expressed mRNA in the presence of chemical substance/The level of expressed mRNA in the absence of chemical substance (yeast gene YKL148C): 0.8
The level of expressed mRNA in the presence of chemical substance/The level of expressed mRNA in the absence of chemical substance (yeast gene YKL170W): 1.2
The level of expressed mRNA in the presence of chemical substance/The level of expressed mRNA in the absence of chemical substance (yeast gene YKL194C): 1.1
The level of expressed mRNA in the presence of chemical substance/The level of expressed mRNA in the absence of chemical substance (yeast gene YKR066C): 0.7
The level of expressed mRNA in the presence of chemical substance/The level of expressed mRNA in the absence of chemical substance (yeast gene YLL041C): 0.8
The level of expressed mRNA in the presence of chemical substance/The level of expressed mRNA in the absence of chemical substance (yeast gene YLR038C): 1.4
The level of expressed mRNA in the presence of chemical substance/The level of expressed mRNA in the absence of chemical substance (yeast gene YLR259C): 0.8
The level of expressed mRNA in the presence of chemical substance/The level of expressed mRNA in the absence of chemical substance (yeast gene YLR295C): 1.2
The level of expressed mRNA in the presence of chemical substance/The level of expressed mRNA in the absence of chemical substance (yeast gene YLR304C): 0.6
The level of expressed mRNA in the presence of chemical substance/The level of expressed mRNA in the absence of chemical substance (yeast gene YLR348C): 0.9
The level of expressed mRNA in the presence of chemical substance/The level of expressed mRNA in the absence of chemical substance (yeast gene YLR395C): 1.0
The level of expressed mRNA in the presence of chemical substance/The level of expressed mRNA in the absence of chemical substance (yeast gene YML054C): 1.5
The level of expressed mRNA in the presence of chemical substance/The level of expressed mRNA in the absence of chemical substance (yeast gene YML120C): 0.9
The level of expressed mRNA in the presence of chemical substance/The level of expressed mRNA in the absence of chemical substance (yeast gene YML129C): 1.2
The level of expressed mRNA in the presence of chemical substance/The level of expressed mRNA in the absence of chemical substance (yeast gene YMR023C): 1.4
The level of expressed mRNA in the presence of chemical substance/The level of expressed mRNA in the absence of chemical substance (yeast gene YMR035W): 1.4
The level of expressed mRNA in the presence of chemical substance/The level of expressed mRNA in the absence of chemical substance (yeast gene YMR083W): 1.1
The level of expressed mRNA in the presence of chemical substance/The level of expressed mRNA in the absence of chemical substance (yeast gene YMR089C): 1.3
The level of expressed mRNA in the presence of chemical substance/The level of expressed mRNA in the absence of chemical substance (yeast gene YMR152W): 0.8
The level of expressed mRNA in the presence of chemical substance/The level of expressed mRNA in the absence of chemical substance (yeast gene YMR203W): 0.7
The level of expressed mRNA in the presence of chemical substance/The level of expressed mRNA in the absence of chemical substance (yeast gene YMR267W): 1.5
The level of expressed mRNA in the presence of chemical substance/The level of expressed mRNA in the absence of chemical substance (yeast gene YNL055C): 0.7
The level of expressed mRNA in the presence of chemical substance/The level of expressed mRNA in the absence of chemical substance (yeast gene YNL071W): 0.9
The level of expressed mRNA in the presence of chemical substance/The level of expressed mRNA in the absence of chemical substance (yeast gene YNL073W): 1.0
The level of expressed mRNA in the presence of chemical substance/The level of expressed mRNA in the absence of chemical substance (yeast gene YNL104C): 0.9
The level of expressed mRNA in the presence of chemical substance/The level of expressed mRNA in the absence of chemical substance (yeast gene YNL256W): 0.9
The level of expressed mRNA in the presence of chemical substance/The level of expressed mRNA in the absence of chemical substance (yeast gene YOL096C): 1.0
The level of expressed mRNA in the presence of chemical substance/The level of expressed mRNA in the absence of chemical substance (yeast gene YOR020C): 1.7
The level of expressed mRNA in the presence of chemical substance/The level of expressed mRNA in the absence of chemical substance (yeast gene YOR037W): 1.5
The level of expressed mRNA in the presence of chemical substance/The level of expressed mRNA in the absence of chemical substance (yeast gene YOR100C): 1.0
The level of expressed mRNA in the presence of chemical substance/The level of expressed mRNA in the absence of chemical substance (yeast gene YOR130C): 0.8
The level of expressed mRNA in the presence of chemical substance/The level of expressed mRNA in the absence of chemical substance (yeast gene YOR142W): 0.8
The level of expressed mRNA in the presence of chemical substance/The level of expressed mRNA in the absence of chemical substance (yeast gene YOR150W): 1.1
The level of expressed mRNA in the presence of chemical substance/The level of expressed mRNA in the absence of chemical substance (yeast gene YOR176W): 1.0
The level of expressed mRNA in the presence of chemical substance/The level of expressed mRNA in the absence of chemical substance (yeast gene YOR187W): 0.7
The level of expressed mRNA in the presence of chemical substance/The level of expressed mRNA in the absence of chemical substance (yeast gene YOR316C): 0.8
The level of expressed mRNA in the presence of chemical substance/The level of expressed mRNA in the absence of chemical substance (yeast gene YPL040C): 1.1
The level of expressed mRNA in the presence of chemical substance/The level of expressed mRNA in the absence of chemical substance (yeast gene YPL134C): 1.3
The level of expressed mRNA in the presence of chemical substance/The level of expressed mRNA in the absence of chemical substance (yeast gene YPL135W): 1.0
The level of expressed mRNA in the presence of chemical substance/The level of expressed mRNA in the absence of chemical substance (yeast gene YPL215W): 1.1
The level of expressed mRNA in the presence of chemical substance/The level of expressed mRNA in the absence of chemical substance (yeast gene YPL262W): 1.0
The level of expressed mRNA in the presence of chemical substance/The level of expressed mRNA in the absence of chemical substance (yeast gene YPR024W): 0.7
The level of expressed mRNA in the presence of chemical substance/The level of expressed mRNA in the absence of chemical substance (yeast gene YPR037C): 1.1
The level of expressed mRNA in the presence of chemical substance/The level of expressed mRNA in the absence of chemical substance (yeast gene YPR047W): 1.2
The level of expressed mRNA in the presence of chemical substance/The level of expressed mRNA in the absence of chemical substance (yeast gene YPR134W): 1.4

From US8192962B2, “Processes for detecting toxic substances” (Daikin Industries, Ltd., priority 2001, dated 2012)
